Measurements published in US7396849B2, “4-(Condensed cyclicmethyl)-imidazole-2-thiones acting as α2 adrenergic agonists” (Allergan, Inc., priority 2004, dated 2008).

Columns and labels:
Format in all cases: cell-based
Details in all cases: NIH-3T3 cells, ratio of maximal effect to that of standard full agonist brimonidine, NA = not active below 10 micromolar
[1] = biological target: T1, alpha2B adrenergic receptors (Homo sapiens, UniProt P18089); assay: RSAT assay (Receptor Selection and Amplification Technology), alpha2B
T1 construct: expressed in transfected cells; host or cells: NIH-3T3 cells
T1 sequence (P18089 1-450): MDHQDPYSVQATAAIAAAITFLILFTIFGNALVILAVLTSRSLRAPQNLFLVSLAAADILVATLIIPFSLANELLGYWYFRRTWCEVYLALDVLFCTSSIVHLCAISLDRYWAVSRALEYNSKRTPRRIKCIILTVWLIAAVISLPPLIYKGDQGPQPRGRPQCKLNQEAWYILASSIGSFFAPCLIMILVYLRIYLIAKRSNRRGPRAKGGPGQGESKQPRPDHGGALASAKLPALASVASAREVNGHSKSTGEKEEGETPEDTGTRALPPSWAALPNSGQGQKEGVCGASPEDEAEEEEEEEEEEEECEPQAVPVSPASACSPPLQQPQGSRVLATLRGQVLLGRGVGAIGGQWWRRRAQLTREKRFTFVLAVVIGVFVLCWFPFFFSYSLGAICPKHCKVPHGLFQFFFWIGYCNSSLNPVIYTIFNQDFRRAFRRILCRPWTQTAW
Source text: (§1) The imidazole-2-thione compounds of the invention are agonists of alpha2 adrenergic receptors. Many compounds of the invention are specific or selective agonists of alpha2B and/or to a lesser extent alpha2C adrenergic receptors, in preference over alpha2A adrenergic receptors. […] 76, pp. 308-311 (incorporated herein by reference) and is also described below. Another reference pertinent to this assay is Conklin et al. (1993) Nature 363:274-6, Receptor Selection and Amplification Technology (RSAT) assay, also incorporated herein by reference.
(§2) The RSAT assay measures a receptor-mediated loss of contact inhibition that results in selective proliferation of receptor-containing cells in a mixed population of confluent cells. The increase in cell number is assessed with an appropriate transfected marker gene such as β-galactosidase, the activity of which can be easily measured in a 96-well format. Receptors that activate the G protein, Gq, elicit this response. Alpha2 receptors, which normally couple to Gi, activate the RSAT response when coexpressed with a hybrid Gq protein that has a Gi receptor recognition domain, called Gq/i5.
(§3) NIH-3T3 cells are plated at a density of 2×10^6 cells in 15 cm dishes and maintained in Dulbecco's modified Eagle's medium supplemented with 10% calf serum. One day later, cells are cotransfected by calcium phosphate precipitation with mammalian expression plasmids encoding p-SV-β-galactosidase (5-10 μg), receptor (1-2 μg) and G protein (1-2 μg). 40 μg salmon sperm DNA may also be included in the transfection mixture. Fresh media is added on the following day and 1-2 days later, cells are harvested and frozen in 50 assay aliquots. Cells are thawed and 100 μl added to 100 μl aliquots of various concentrations of drugs in triplicate in 96-well dishes. Incubations continue 72-96 hr at 37° C. After washing with phosphate-buffered saline, β-galactosidase enzyme activity is determined by adding 200 μl of the chromogenic substrate (consisting of 3.5 mM o-nitrophenyl-β-D-galactopyranoside and 0.5% nonidet P-40 in phosphate buffered saline), incubating overnight at 30° C. and measuring optical density at 420 nm. The absorbance is a measure of enzyme activity, which depends on cell number and reflects a receptor-mediated cell proliferation. The efficacy or intrinsic activity is calculated as a ratio of the maximal effect of the drug to the maximal effect of a standard full agonist for each receptor subtype. Brimonidine, also called UK14304, the chemical structure of which is shown below, is used as the standard agonist for the alpha2A, alpha2B and alpha2C receptors.
(§4) The results of the RSAT assay with several exemplary compounds of the invention are disclosed in Table 1 above together with the chemical formulas of these examplary compounds. NA stands for “not active” at cohcentrations less than 10 micromolar.

[2] = biological target: T2, alpha2C adrenergic receptors (Homo sapiens, UniProt P18825); assay: RSAT assay (Receptor Selection and Amplification Technology), alpha2C
T2 construct: expressed in transfected cells; host or cells: NIH-3T3 cells
T2 sequence (P18825 1-462): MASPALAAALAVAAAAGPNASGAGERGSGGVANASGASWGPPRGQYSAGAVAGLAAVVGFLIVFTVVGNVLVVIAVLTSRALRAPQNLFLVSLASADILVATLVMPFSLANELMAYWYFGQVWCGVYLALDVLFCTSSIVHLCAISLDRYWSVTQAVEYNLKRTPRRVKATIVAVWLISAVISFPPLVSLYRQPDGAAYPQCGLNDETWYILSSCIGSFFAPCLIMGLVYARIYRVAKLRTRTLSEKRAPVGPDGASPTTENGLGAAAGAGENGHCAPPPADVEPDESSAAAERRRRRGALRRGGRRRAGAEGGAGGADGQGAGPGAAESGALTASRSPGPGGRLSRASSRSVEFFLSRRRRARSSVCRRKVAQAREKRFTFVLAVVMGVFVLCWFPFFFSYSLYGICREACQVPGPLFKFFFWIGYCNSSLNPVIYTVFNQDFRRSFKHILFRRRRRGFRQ
Source text: as §1, §2, §3, §4

[3] = biological target: T3, alpha2A adrenergic receptors (Homo sapiens, UniProt P08913); assay: RSAT assay (Receptor Selection and Amplification Technology), alpha2A
T3 construct: expressed in transfected cells; host or cells: NIH-3T3 cells
T3 sequence (P08913 1-465): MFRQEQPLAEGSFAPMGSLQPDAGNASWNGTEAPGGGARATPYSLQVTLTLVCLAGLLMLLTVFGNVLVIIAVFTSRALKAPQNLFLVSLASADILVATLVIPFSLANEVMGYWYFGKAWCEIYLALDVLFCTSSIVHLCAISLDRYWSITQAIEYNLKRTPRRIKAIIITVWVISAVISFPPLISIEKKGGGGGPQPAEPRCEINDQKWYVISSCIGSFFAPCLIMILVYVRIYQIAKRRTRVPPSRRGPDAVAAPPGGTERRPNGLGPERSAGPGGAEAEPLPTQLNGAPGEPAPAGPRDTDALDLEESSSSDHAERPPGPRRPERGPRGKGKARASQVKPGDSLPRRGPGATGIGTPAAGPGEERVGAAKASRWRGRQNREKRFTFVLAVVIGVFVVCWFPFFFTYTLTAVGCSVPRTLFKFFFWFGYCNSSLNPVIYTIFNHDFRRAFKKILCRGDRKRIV
Source text: as §1, §2, §3, §4

Row | Compound | Intrinsic Activity Alpha 2B [1] | Intrinsic Activity Alpha 2C [2] | Intrinsic Activity Alpha 2A [3]
1 | S=c1[nH]cc(Cc2cccc3nsnc23)[nH]1 [Compound-16, 4-benzo[1,2,5]thiadiazol-4-ylmethyl-1,3-dihydro-imidazole-2-thione] | 1.22 | 0.69 | –
2 | S=c1[nH]cc(Cc2ccc3ccccc3c2)[nH]1 [Compound 11, 4-naphthalen-2-ylmethyl-1,3-dihydro-imidazole-2-thione] | 0.94 | – | –
3 | CC(c1c[nH]c(=S)[nH]1)c1cccc2c1OCCO2 (stereo not drawn) [Compound 2, 4-[1-(2,3-dihydro-benzo[1,4]dioxin-5-yl)-ethyl]-1,3-dihydro-imidazole-2-thione] | 1.38 | 0.48 | 0.45
4 | S=c1[nH]cc(Cc2cccc3ncccc23)[nH]1 [Compound 9, 4-quinolin-5-ylmethyl-1,3-dihydro-imidazole-2-thione] | 0.74 | – | –
5 | S=c1[nH]cc(Cc2cccc3cccnc23)[nH]1 [Compound 8, 4-quinolin-8-ylmethyl-1,3-dihydro-imidazole-2-thione] | 1.01 | 0.75 | 0.93
6 | CC(c1c[nH]c(=S)[nH]1)c1cccc2ccccc12 (stereo not drawn) [Compound 10, 4-(1-naphthalen-1-yl-ethyl)-1,3-dihydro-imidazole-2-thione] | 1.21 | – | 0.52
7 | CC(c1c[nH]c(=S)[nH]1)c1cccc2nsnc12 (stereo not drawn) [Compound-17, 4-(1-benzo[1,2,5]thiadiazol-4-yl-ethyl)-1,3-dihydro-imidazole-2-thione] | 0.98 | – | –
8 | CC(c1c[nH]c(=S)[nH]1)c1cccc2c1OCO2 (stereo not drawn) [Compound 3, 4-(1-benzo[1,3]dioxol-4-yl-ethyl)-1,3-dihydro-imidazole-2-thione] | 0.97 | 0.77 | 0.56
9 | Cc1c(C(C)c2c[nH]c(=S)[nH]2)ccc2cccnc12 (stereo not drawn) [Compound-18, 4-[1-(8-methyl-quinolin-7-yl)-ethyl]-1,3-dihydro-imidazole-2-thione] | 1.05 | 0.41 | 0.80
10 | CC(c1c[nH]c(=S)[nH]1)c1cccc2ncccc12 (single isomer, unassigned; (+)) [Compound 14, (+)-4-(1-quinolin-5-yl-ethyl)-1,3-dihydro-imidazole-2-thione] | 0.86 | – | –
11 | CC(c1ccc2c(c1)OCCO2)c1c[nH]c(=S)[nH]1 (stereo not drawn) [Compound 12, 4-[1-(2,3-dihydro-benzo[1,4]dioxin-6-yl)-ethyl]-1,3-dihydro-imidazole-2-thione] | 1.15 | – | 0.54
12 | S=c1[nH]cc(Cc2cccc3c2OCCO3)[nH]1 [Compound 1, 4-(2,3-dihydro-benzo[1,4]dioxin-5-ylmethyl)-1,3-dihydro-imidazole-2-thione] | 0.94 | 0.56 | 0.44
13 | S=c1[nH]cc(Cc2ccc3c(c2)CCCS3)[nH]1 [Compound 13, 4-thiochroman-6-ylmethyl-1,3-dihydro-imidazole-2-thione] | 0.95 | – | –
14 | CC(c1c[nH]c(=S)[nH]1)c1cccc2cccnc12 (stereo not drawn) [Compound 4, 4-(1-quinolin-8-yl-ethyl)-1,3-dihydro-imidazole-2-thione] | 1.03 | 0.62 | 0.80
15 | S=c1[nH]cc(Cc2ccc3c(c2)OCO3)[nH]1 [Compound 5, 4-benzo[1,3]dioxol-5-ylmethyl-1,3-dihydro-imidazole-2-thione] | 1.05 | – | –
16 | S=c1[nH]cc(Cc2cccc3ccccc23)[nH]1 [Compound 6, 4-naphthalen-1-ylmethyl-1,3-dihydro-imidazole-2-thione] | 0.73 | 0.55 | 0.48
